Results taken from patent publication US20090306009A1, “Modulation of the P2Y2 Receptor Pathway” (P2-SCIENCE APS, priority 2005, published 2009).
“Also recorded” adds a separate entry of the source. Where two headings read alike, the source gives them in different places.

Assays:
[1] = tested on: resting leg of healthy male subjects; assay: Leg haemodynamic responses to intrafemoral artery infusion of purinergic vasodilators alone and combined with tyramine; assay type: in vivo, human; settings: for effect on increased sympathetic vasoconstrictor activity evoked by tyramine: infusion in the resting leg; for leg blood flow (LBF) during vasodilator infusion: intrafemoral artery infusion of vasodilator alone, resting leg, rest about 0.5; for leg blood flow (LBF) during vasodilator infusion / leg a-v O2 difference during vasodilator infusion / leg blood flow (LBF) during combined vasodilator and tyramine infusion / leg a-v O2 difference during combined vasodilator and tyramine infusion: mean±S.E.M.; for leg vasoconstriction caused by tyramine during vasodilator infusion: tyramine added to the infusion of the named vasodilator; for leg a-v O2 difference during vasodilator infusion: vasodilator alone; for leg blood flow (LBF) during combined vasodilator and tyramine infusion: vasodilator plus tyramine about 13.2 μmol/min; for leg a-v O2 difference during combined vasodilator and tyramine infusion: vasodilator plus tyramine; for effect of tyramine on leg vascular conductance during vasodilator infusion / effect of tyramine on LBF during vasodilator infusion: tyramine added to vasodilator infusion; for effect of tyramine on LBF during vasodilator infusion: P=0.53
Procedure: This study was performed in nine healthy male subjects from Denmark. The subjects were fully informed of any risks and discomforts associated with the experiments before giving their informed written consent to participate. The studies conformed to the code of Ethics of the World Medical Association (Declaration of Helsinki) and were approved by the Ethics Committee for Copenhagen and Frederiksberg communities.
Subjects reported to the laboratory at 8 a.m. or 1 p.m., following the ingestion of a light breakfast or lunch. Upon arrival, they rested in a supine position while three catheters were placed under local anaesthesia (1% lidocaine) into the femoral artery and vein of the right leg and in the femoral artery of the left leg using the Seldinger technique. The femoral artery and vein catheters were positioned 1-2 cm distal from the inguinal ligament. A thermistor (Edslab probe 94-0.3-2.5F) to measure venous blood temperature was inserted through the femoral venous catheter orientated in the anterograde direction for the determination of femoral venous blood flow. Femoral venous blood flow (an index of leg blood flow (LBF)) was determined by the constant infusion thermodilution technique (Andersen & Saltin, 1985 J Physiol. 366:233-49; González-Alonso et al. 2000 J Physiol. 524:603-15; Am J Physiol Heart Circ Physiol. 278(2):H321-30). LBF represents the average of two measurements made 1-2 min after the start of exercise and 1-2 min after the start of infusion of ATP, adenosine or tyramine. Arterial blood pressure was continuously monitored by a pressure transducer (Pressure Monitoring Kit, Baxter) at the level of inguinal region and calculated by integration of the pressure curve. Heart rate was determined from an electrocardiogram. All data were continuously recorded using a Powerlab system (ADInstruments, Sydney, Australia).
Leg blood flow (LBF) and mean arterial pressure (MAP) was measured during […] purinergically-induced hyperaemic conditions: (1) Intrafemoral artery infusion of adenosine (vasodilator control), (2) sequential intraarterial infusion of AMP, ADP, ATP or UTP (vasodilators), and (3), comparing the responses with the combined infusion with the vasoconstrictor drug tyramine, which evokes endogenous release of noradrenaline from sympathetic nerve endings.
Adenosine (Item Development AB, Stocksund, Sweden) was dissolved in isotonic saline (1.25 mg ml^−1) and infused at a rate of 16 μmol min^−1. AMP (Sigma) was dissolved in isotonic saline and infused at 71 μmol/min, ADP (Sigma) was dissolved in isotonic saline at […], ATP (Sigma) was dissolved in isotonic saline at 1 μmol/^min and UTP (Sigma) was dissolved in isotonic saline 1 μmol min^−1
95:2370-4; J Physiol. 547:971-6).
(§1) The combined infusion of adenosine and tyramine was to evoke a vasoconstrictor response in the resting leg of about 50%, without causing increases in arterial blood pressure, as previously documented in the Leg (Rosenmeier et al. 2004 J. Physiol. 558:351-365). Tyramine (Sigma T-2879) dissolved in isotonic saline (0.52 mg ml-1) was infused at a rate of about 13.2 μmol/min through all the tyramine trials.
The subjects first received separate infusions of adenosine, AMP, ADP, ATP or UTP for 4 min followed by combined infusions of vasodilator and tyramine for an additional 4 min.
Plasma noradrenaline and adrenaline concentrations were determined with high performance liquid chromatography with electrochemical detection (Hallman et al. 1978 Life Sci. 23(10):1049-52). Arterial and femoral haemoglobin concentration and O2 saturation were determined spectrophotometrically (OSM-3 Hemoximeter, Radiometer). PO2 was determined with the Astrup technique (ABL 5, Radiometer, Copenhagen, Denmark).
Leg vascular conductance was calculated as the quotient between LBF and mean arterial pressure. Leg O2 delivery was calculated by multiplying LBF by arterial O2 content. […]

[2] = tested on: leg blood flow; settings: previously registered, Rosenmeier et al. 2004; cited from earlier work
[3] = tested on: leg blood flow; assay: Maximal nucleotide-induced vasodilatation at rest relative to peak LBF during maximal bicycling exercise; assay type: in vivo, human
Description: Maximal UTP-induced vasodilatation was investigated at rest accounted for […] of the peak LBF during maximal bicycling exercise in comparison to the 78% increase in LBF previously registered for ATP (Rosenmeier et al. 2004 J. Physiol. 558:351-365).

[4] = tested on: resting leg; assay: Tyramine infusion alone in the resting leg (separate studies); assay type: in vivo, human; settings: tyramine about 13.2 μmol/min, no vasodilator
Procedure: as §1

[5] = vasodilator alone versus combined with tyramine

Nc1ncnc2c1ncn2[C@@H]1O[C@H](COP(=O)(O)OP(=O)(O)O)[C@@H](O)[C@H]1O [ADP]
effect on increased sympathetic vasoconstrictor activity evoked by tyramine [1]: does not; also recorded: substantial vasoconstrictor response | leg blood flow (LBF) during vasodilator infusion [1]: 3.34 ± 0.4 L/min | leg vasoconstriction caused by tyramine during vasodilator infusion [1]: 30% | leg VO2, vasodilator alone versus with tyramine [1, 5]: statistically significantly different | leg a-v O2 difference during vasodilator infusion [1]: 6.0+1 ml l^−1 | leg blood flow (LBF) during combined vasodilator and tyramine infusion [1]: 2.3 ± 0.3 L/min

Nc1ncnc2c1ncn2[C@@H]1O[C@H](COP(=O)(O)O)[C@@H](O)[C@H]1O [AMP]
effect on increased sympathetic vasoconstrictor activity evoked by tyramine [1]: does not; also recorded: substantial vasoconstrictor response | leg blood flow (LBF) during vasodilator infusion [1]: 3.7 ± 0.4 L/min | leg vasoconstriction caused by tyramine during vasodilator infusion [1]: 53% | change of leg a-v O2 difference on addition of tyramine [1, 5]: elevated | leg a-v O2 difference during vasodilator infusion [1]: 4.5±0.5 ml l^−1 | leg blood flow (LBF) during combined vasodilator and tyramine infusion [1]: 1.7 ± 0.2 L/min | leg a-v O2 difference during combined vasodilator and tyramine infusion [1]: 15.3±3.1 ml l^−1

Nc1ncnc2c1ncn2[C@@H]1O[C@H](COP(=O)(O)OP(=O)(O)OP(=O)(O)O)[C@@H](O)[C@H]1O [ATP]
effect on increased sympathetic vasoconstrictor activity evoked by tyramine [1]: fully blunts | leg vasoconstriction caused by tyramine during vasodilator infusion [1]: 0% | effect of tyramine on leg vascular conductance during vasodilator infusion [1]: did not alter; also recorded: no reduction | effect of tyramine on LBF during vasodilator infusion [1]: did not alter; also recorded: no reduction | change of leg a-v O2 difference on addition of tyramine [1, 5]: Absolutely no change; also recorded: unchanged | leg a-v O2 difference during vasodilator infusion [1]: 7.9±1.7 ml l^−1 | leg a-v O2 difference during combined vasodilator and tyramine infusion [1]: 5.7±1.6 ml l^−1 | maximal vasodilatation as share of peak LBF during maximal bicycling exercise [2]: 78%

O=c1ccn([C@@H]2O[C@H](COP(=O)(O)OP(=O)(O)OP(=O)(O)O)[C@@H](O)[C@H]2O)c(=O)[nH]1 [UTP]
effect on increased sympathetic vasoconstrictor activity evoked by tyramine [1]: fully blunts | leg vasoconstriction caused by tyramine during vasodilator infusion [1]: 0% | effect of tyramine on leg vascular conductance during vasodilator infusion [1]: did not alter; also recorded: no reduction | effect of tyramine on LBF during vasodilator infusion [1]: did not alter; also recorded: no reduction | change of leg a-v O2 difference on addition of tyramine [1, 5]: Absolutely no change; also recorded: unchanged | leg a-v O2 difference during vasodilator infusion [1]: 7.1±0.9 ml l^−1 | leg a-v O2 difference during combined vasodilator and tyramine infusion [1]: 7.1±1.5 ml l^−1 | maximal vasodilatation as share of peak LBF during maximal bicycling exercise [3]: 50%

Nc1ncnc2c1ncn2[C@@H]1O[C@H](CO)[C@@H](O)[C@H]1O [adenosine]
effect on increased sympathetic vasoconstrictor activity evoked by tyramine [1]: does not; also recorded: substantial vasoconstrictor response | leg blood flow (LBF) during vasodilator infusion [1]: 3.8 ± 0.3 L/min | leg vasoconstriction caused by tyramine during vasodilator infusion [1]: 56% | change of leg a-v O2 difference on addition of tyramine [1, 5]: elevated | leg a-v O2 difference during vasodilator infusion [1]: 7.7±0.5 ml l^−1 | leg blood flow (LBF) during combined vasodilator and tyramine infusion [1]: 1.7 ± 0.2 L/min | leg a-v O2 difference during combined vasodilator and tyramine infusion [1]: 26.0±2.2 ml l^−1

NCCc1ccc(O)cc1 [tyramine]
reduction of blood flow by tyramine infusion [4]: 44±3%
